# Measurements from US20190070124A1, “COMPOSITIONS OF CB2 RECEPTOR SELECTIVE AGONISTS FOR TREATMENT OF MENTAL DISORDERS” (priority 2016, published 2019).
# Entries after “also recorded” stand apart in the source; their conditions may differ.
# Assays:
# [1] = air exposed, after 5 weeks; cited from earlier work
# [2] = test system: murine model of schizophrenia; assay: Elevated Plus Maze test in the PCP mouse model; assay type: in vivo, mice
# Procedure: Anxiety as measured by the paucity of time spent on the two, anxiety-provoking, open arms (as opposed to the two enclosed arms) of an “Elevated Plus Maze” was used as a parameter of negative symptoms of schizophrenia (Josselyn and Vaccarino, 1998). The plus maze was elevated 50 cm above the table top. Behavior of each mouse was recorded for 5 min by a video camera and scored using the “EthoVision” software (Noldus Information Technology, Wageningen, The Netherlands), measuring the number of entries as well as the amount of time spent in each arm, open or closed. Increased time spent in the closed arms indicated increased anxiety. Increased time spent in the opened arms indicated anxiolytic behavior (reduced stress).
# [3] = age 13 weeks, postnatal BCP 10 mg/kg 1 h after PCP
substance,measurement,setting,value
"trans-(1R,9S)-8-methylene-4,11,11trimethylbicyclo[7.2.0]undec-4-ene [BCP]",original compound consumed by autoxidation,[1],~50%
same,plus maze open/close or open/(close+open) duration and frequency,"[2]; PND 64, postnatal PCP, BCP 5 mg/kg PND 43-61",no effect at age 64; also recorded: did not reverse the effects of PCP in plus maze test
same,behavior in the open arm of the Elevated Plus Maze,"[2]; PND 110, postnatal PCP, BCP 5 mg/kg PND 43-61",significantly reversed the effects of PCP on behavior in the open arm of the Elevated Plus Maze
same,time spent in closed arm or open arm,"[2]; age 13 weeks, females and males, postnatal BCP 10 mg/kg 1 h after PCP",no significant change in the time spent in the closed arm or open arm
same,"time spent in distal end of the opened arm, females",[2]; [3],reversed this effect
same,"time spent in distal end of the opened arm, males",[2]; [3],reversed this effect
same,behavior in the close arm of the Elevated Plus Maze,"[2]; age 64 days, postnatal PCP, BCP 5 mg/kg PND 43-61",significantly reversed the effects of PCP on behavior in the close arm of the Elevated Plus Maze
